Patent publication US9273009B2, “Tetrahydronaphthalene derivatives” (Concert Pharmaceuticals Inc., priority 2010, dated 2016)
Counter-ions that a name gives are not always drawn. Like-named read-outs stand apart in the source and are kept apart here.

How the values were obtained:
[1] = relative to mibefradil; cited from earlier work
[2] = Metabolic stability in human liver microsomes (in vitro t1/2); format: in vitro ADME; settings: for half-life: human, human liver microsomes
Method: Human liver microsomes (20 mg/mL) were obtained from Xenotech, LLC (Lenexa, Kans.). β-nicotinamide adenine dinucleotide phosphate, reduced form (NADPH), magnesium chloride (MgCl2), and dimethyl sulfoxide (DMSO) were purchased from Sigma-Aldrich.
7.5 mM stock solutions of test compounds were prepared in DMSO. The 7.5 mM stock solutions were diluted to 12.5-50 μM in acetonitrile (ACN). The 20 mg/mL human liver microsomes were diluted to 0.625 mg/mL in 0.1 M potassium phosphate buffer, pH 7.4, containing 3 mM MgCl2. The diluted microsomes were added to wells of a 96-well deep-well polypropylene plate in triplicate. A 10 μL aliquot of the 12.5-50 μM test compound was added to the microsomes and the mixture was pre-warmed for 10 minutes. Reactions were initiated by addition of pre-warmed NADPH solution. The final reaction volume was 0.5 mL and contained 0.5 mg/mL human liver microsomes, 0.25-1.0 μM test compound, and 2 mM NADPH in 0.1 M potassium phosphate buffer, pH 7.4, and 3 mM MgCl2. The reaction mixtures were incubated at 37° C., and 50 μL aliquots were removed at 0, 5, 10, 20, and 30 minutes and added to shallow-well 96-well plates which contained 50 μL of ice-cold ACN with internal standard to stop the reactions. The plates were stored at 4° C. for 20 minutes after which 100 μL of water was added to the wells of the plate before centrifugation to pellet precipitated proteins. Supernatants were transferred to another 96-well plate and analyzed for amounts of parent remaining by LC-MS/MS using an Applied Bio-systems API 4000 mass spectrometer. The same procedure was followed for the non-deuterated counterpart of the compound of Formula B, Formula A, Formula I, Formula B-I, Formula C, or Formula E and the positive control, 7-ethoxycoumarin (1.0 μM). Testing was done in triplicate.
The in vitro t1/2s for test compounds were calculated from the slopes of the linear regression of % parent remaining (ln) vs incubation time relationship. in vitro t1/2=0.693/k k=−[slope of linear regression of % parent remaining(ln) vs incubation time]

[3] = intravenous, healthy male volunteers, cited from earlier work
[4] = pH 7.4, Table 8b, 0.5 mg/mL HLM, 2 mM NADPH, 37° C., read-out: t1/2 Experiment 1
[5] = pH 7.4, Table 8b, 0.5 mg/mL HLM, 2 mM NADPH, 37° C., read-out: t1/2 Experiment 2
[6] = pH 7.4, Table 8b, average of Experiments 1 and 2, read-out: t1/2 Ave
[7] = pH 7.4, Table 8a, 0.5 mg/mL HLM, 2 mM NADPH, 37° C., read-out: t1/2 Experiment 1
[8] = pH 7.4, Table 8a, 0.5 mg/mL HLM, 2 mM NADPH, 37° C., read-out: t1/2 Experiment 2
[9] = pH 7.4, Table 8a, average of Experiments 1 and 2, read-out: t1/2 Ave

Row | half-life [2, 4] [min] | half-life [2, 5] [min] | half-life [2, 6] [min] | half-life [2, 7] [min] | half-life [2, 8] [min] | half-life [2, 9] [min] | Compound | further results
1 | – | – | – | – | – | – | CC(C)C1c2ccc(F)cc2CCC1(O)CCN(C)CCCc1nc2ccccc2[nH]1 (stereo not shown) [Ro 40-5966] | pharmacologic effect of the metabolite as share of that of the parent [1]: approximately 10%
2 | 6.16 | 6.6 | 6.38 | – | – | – | [2H]C1([2H])c2cc(F)ccc2[C@H](C(C)C)[C@](CCN(C)CCCc2nc3ccccc3[nH]2)(OC(=O)C2CC2)C1([2H])[2H] [Compound 704a, (1S,2S)-2-(2-((3-(1H-Benzo[d]imidazol-2-yl)propyl)(methyl)amino)ethyl)-3,3,4,4-tetradeutero-6-fluoro-1-isopropyl-1,2,3,4-tetrahydronaphthalen-2-yl cyclopropanecarboxylate] | –
3 | 7.27 | 7.03 | 7.15 | – | – | – | [2H]C([2H])([2H])N(CC[C@]1(OC(=O)C2CC2)[C@@H](C(C)C)c2ccc(F)cc2C([2H])([2H])C1([2H])[2H])C([2H])([2H])C([2H])([2H])C([2H])([2H])c1nc2ccccc2[nH]1 [Compound 707a, (1S,2S)-2-(2-((3-(1H-Benzo[d]imidazol-2-yl)-1,1,2,2,3,3-hexadeuteropropyl)(trideuteromethyl)-amino)ethyl)-3,3,4,4-tetradeutero-6-fluoro-1-isopropyl-1,2,3,4-tetrahydronaphthalen-2-yl cyclopropanecarboxylate] | –
4 | – | – | – | 4.61 | 4.98 | 4.79 | [2H]C1([2H])c2cc(F)ccc2[C@H](C(C)C)[C@](CCN(C)CCCc2nc3ccccc3[nH]2)(OC(=O)COC)C1([2H])[2H] [Compound 500, (1S,2S)-2-(2-((3-(1H-Benzo[d]imidazol-2-yl)propyl)(methyl)amino)ethyl)-3,3,4,4-tetradeutero-6-fluoro-1-isopropyl-1,2,3,4-tetrahydronaphthalen-2-yl 2-methoxyacetate] | half life (t1/2) shorter than that of mibefradil ([2]; HLM, from Table 8a): approximately 44%
5 | – | – | – | 7.17 | 7.72 | 7.45 | [2H]C([2H])([2H])N(CC[C@]1(OC(=O)COC)[C@@H](C(C)C)c2ccc(F)cc2C([2H])([2H])C1([2H])[2H])C([2H])([2H])C([2H])([2H])C([2H])([2H])c1nc2ccccc2[nH]1 [Compound 703a, (1S,2S)-2-(2-((3-(1H-Benzo[d]imidazol-2-yl)-1,1,2,2,3,3-hexadeuteropropyl)(trideuteromethyl)-amino)ethyl)-3,3,4,4-tetradeutero-6-fluoro-1-isopropyl-1,2,3,4-tetrahydronaphthalen-2-yl 2-methoxyacetate] | –
6 | 6.58 | 6.55 | 6.56 | – | – | – | CC(C)[C@H]1c2ccc(F)cc2CC[C@@]1(CCN(C)CCCc1nc2ccccc2[nH]1)OC(=O)C1CC1 [NNC 55-0396, reference compound] | –
7 | – | – | – | 8.49 | 8.55 | 8.52 | COCC(=O)O[C@]1(CCN(C)CCCc2nc3ccccc3[nH]2)CCc2cc(F)ccc2[C@@H]1C(C)C [Mibefradil, (1S,2S)-2-(2-((3-(2-benzimidazolylpropyl)methylamino)ethyl)-6-fluoro-1,2,3,4-tetrahydro-1-isopropyl-2-naphthyl methoxyacetatedihydrochloride, reference compound] | bilirubin ([3]; in all cases): dose-dependent increase; plasma haptoglobin ([3]; in two cases): severe decrease
